# Assay results reported in PubChem BioAssay AID330 (DTP/NCI, 2004).
# Several values for one entry are separate records, joined by “and”; a condition that tells them apart may be missing. Equal values may be shown once. Inconclusive results and toxic doses are left out.
# Test system: P388 leukemia ip, CD2F1 mice, survival T/C
# Assay: NCI In Vivo Anticancer Drug Screen. Data for tumor model P388 Leukemia (intraperitoneal) in CD2F1 (CDF1) mice
# Details: endpoint: median survival time, higher = longer survival
# Procedure, shortened: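 Mice carrying the transplanted tumor received test compound or vehicle. Survival was recorded in each group, and the value is the treated-group measurement divided by that of the vehicle-treated control group.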
# [1] = dose: 50.0 mg/kg/injection, schedule: Q01DX009 (ip), vehicle: Klucel (hydroxypropylcellulose) (HPC)
# [2] = dose: 50.0 mg/kg/injection, schedule: Q01DX009 (ip), vehicle: saline with Tween-80
# [3] = dose: 100.0 mg/kg/injection, schedule: Q01DX009 (ip), vehicle: Klucel (hydroxypropylcellulose) (HPC)
# [4] = dose: 100.0 mg/kg/injection, schedule: Q01DX009 (ip), vehicle: saline with Tween-80
# [5] = dose: 200.0 mg/kg/injection, schedule: Q01DX009 (ip), vehicle: Klucel (hydroxypropylcellulose) (HPC)
# [6] = dose: 200.0 mg/kg/injection, schedule: Q01DX009 (ip), vehicle: saline with Tween-80
# [7] = dose: 60.0 mg/kg/injection, schedule: Q01DX005 (ip), vehicle: Klucel (hydroxypropylcellulose) (HPC)
# [8] = dose: 120.0 mg/kg/injection, schedule: Q01DX005 (ip), vehicle: Klucel (hydroxypropylcellulose) (HPC)
# [9] = dose: 25.0 mg/kg/injection, schedule: Q01DX009 (ip), vehicle: saline with Tween-80
# [10] = dose: 5.0 mg/kg/injection, schedule: Q01DX009 (ip), vehicle: Klucel (hydroxypropylcellulose) (HPC)
# [11] = dose: 10.0 mg/kg/injection, schedule: Q01DX009 (ip), vehicle: Klucel (hydroxypropylcellulose) (HPC)
# [12] = dose: 20.0 mg/kg/injection, schedule: Q01DX009 (ip), vehicle: Klucel (hydroxypropylcellulose) (HPC)
# [13] = dose: 100.0 mg/kg/injection, schedule: Q04DX003 (ip), vehicle: Klucel (hydroxypropylcellulose) (HPC)
# [14] = dose: 200.0 mg/kg/injection, schedule: Q04DX003 (ip), vehicle: Klucel (hydroxypropylcellulose) (HPC)
# [15] = dose: 400.0 mg/kg/injection, schedule: Q04DX003 (ip), vehicle: Klucel (hydroxypropylcellulose) (HPC)
# [16] = dose: 240.0 mg/kg/injection, schedule: Q01DX005 (ip), vehicle: Klucel (hydroxypropylcellulose) (HPC)
# [17] = dose: 60.0 mg/kg/injection, schedule: Q01DX005 (ip), vehicle: saline with Tween-80
# [18] = dose: 120.0 mg/kg/injection, schedule: Q01DX005 (ip), vehicle: saline with Tween-80
smiles,measurement,setting,value
CC(=O)Nn1cnc2c(SCc3ccccc3)ncnc21,T/C,[1],100 % of control
same,T/C,[2],100 % of control
same,T/C,[3],100 % of control
same,T/C,[4],95 % of control
same,T/C,"dose: 100.0 mg/kg/injection, schedule: Q04DX003 (ip), vehicle: saline with Tween-80",95 % of control
same,T/C,[5],100 % of control
same,T/C,[6],122 % of control
COC(=O)c1ccc(C(=O)OC)c2nc3ccccc3nc12,T/C,[7],97 % of control
same,T/C,[8],100 % of control
CN(C)c1ccc(SC(=S)NCc2ccccc2)cc1,T/C,[7],88 % of control
same,T/C,[8],88 % of control
C(=C\c1cccnc1)/c1ccncc1,T/C,[9],95 % of control
same,T/C,[2],104 % of control
same,T/C,[4],109 % of control
COC(=O)C1CC(OC(C)=O)C2OC(C)(C)OC2C1OC(C)=O (stereo not drawn),T/C,[1],100 % of control
same,T/C,[3],99 % of control
same,T/C,[5],100 % of control
COc1cc2c(c(OC)c1OC)-c1ccc(=O)c(OC)cc1[C@@H](N(C)C=O)CC2,T/C,"dose: 2.5 mg/kg/injection, schedule: Q01DX009 (ip), vehicle: Klucel (hydroxypropylcellulose) (HPC)",105 % of control
same,T/C,[10],112 % of control
same,T/C,[11],100 % of control
same,T/C,[12],114 % of control
same,T/C,"dose: 40.0 mg/kg/injection, schedule: Q01DX009 (ip), vehicle: Klucel (hydroxypropylcellulose) (HPC)",114 % of control
C/C(=N\NC(=S)N1CCN(c2ccccn2)CC1)c1cccc(C)n1,T/C,"dose: 6.25 mg/kg/injection, schedule: Q01DX005 (ip), vehicle: saline with Tween-80",101 % of control and 107 % of control
same,T/C,"dose: 12.5 mg/kg/injection, schedule: Q01DX005 (ip), vehicle: saline with Tween-80",103 % of control and 124 % of control
same,T/C,"dose: 25.0 mg/kg/injection, schedule: Q01DX005 (ip), vehicle: saline with Tween-80",118 % of control
C=C(C)C(=O)Nc1ccc(NS(=O)(=O)c2ccc(C(C)CC)cc2)c(O)c1 (stereo not drawn),T/C,"dose: 50.0 mg/kg/injection, schedule: Q01DX009 (ip), vehicle: saline + alcohol",101 % of control
same,T/C,"dose: 100.0 mg/kg/injection, schedule: Q01DX009 (ip), vehicle: saline + alcohol",106 % of control
same,T/C,"dose: 200.0 mg/kg/injection, schedule: Q01DX009 (ip), vehicle: saline + alcohol",106 % of control
CC1CC(c2ccccc2Cl)C(c2ccccc2)C(=O)O1 (stereo not drawn),T/C,[13],100 % of control
same,T/C,[14],106 % of control
same,T/C,[15],108 % of control
C[C](C)(C)[Sn](=[O])[C](C)(C)C,T/C,"dose: 6.25 mg/kg/injection, schedule: Q01DX009 (ip), vehicle: saline",95 % of control
same,T/C,"dose: 12.5 mg/kg/injection, schedule: Q01DX009 (ip), vehicle: saline",97 % of control
same,T/C,"dose: 25.0 mg/kg/injection, schedule: Q01DX009 (ip), vehicle: saline",99 % of control
CCOC(=O)N1CC23C(C)C(C)=C(C)C2C3(C)N1C(=O)OCC (stereo not drawn),T/C,"dose: 50.0 mg/kg/injection, schedule: Q01DX005 (ip), vehicle: Klucel (hydroxypropylcellulose) (HPC)",100 % of control
same,T/C,"dose: 100.0 mg/kg/injection, schedule: Q01DX005 (ip), vehicle: Klucel (hydroxypropylcellulose) (HPC)",100 % of control
same,T/C,"dose: 200.0 mg/kg/injection, schedule: Q01DX005 (ip), vehicle: Klucel (hydroxypropylcellulose) (HPC)",98 % of control
OCC1CSC(=S)N1Cc1ccccc1 (stereo not drawn),T/C,[7],97 % of control
same,T/C,[8],100 % of control
same,T/C,[16],107 % of control
CN(N=O)c1ccc(N=Nc2ccccc2)cc1,T/C,[7],98 % of control
same,T/C,[8],95 % of control
same,T/C,[16],86 % of control
COC(=O)c1ccc(C)c(NS(=O)(=O)c2ccc3c(c2)c(=O)sn3C)c1,T/C,"dose: 50.0 mg/kg/injection, schedule: Q01DX005 (ip), vehicle: saline with Tween-80",102 % of control
same,T/C,"dose: 100.0 mg/kg/injection, schedule: Q01DX005 (ip), vehicle: saline with Tween-80",110 % of control
same,T/C,"dose: 200.0 mg/kg/injection, schedule: Q01DX005 (ip), vehicle: saline with Tween-80",112 % of control
Cc1cn(C)c2c1-c1c(cnn1-c1ccccc1)CC2,T/C,[13],100 % of control
same,T/C,[14],102 % of control
same,T/C,[15],93 % of control
Cc1ccc(S(=O)(=O)NCc2cccc(CNS(=O)(=O)c3ccc(C)cc3)c2)cc1,T/C,[2],104 % of control
same,T/C,[4],89 % of control
same,T/C,[6],100 % of control
CC1CCCCC1C(C)(C#N)Nc1ccccc1 (stereo not drawn),T/C,[4],109 % of control
same,T/C,[6],113 % of control
same,T/C,"dose: 400.0 mg/kg/injection, schedule: Q01DX009 (ip), vehicle: saline with Tween-80",118 % of control
CC(=O)Nc1ccc(C)cc1C1SCCS1,T/C,[9],90 % of control
same,T/C,[2],105 % of control
same,T/C,[4],97 % of control
C[n+]1ccc2ccccc2c1,T/C,"dose: 15.0 mg/kg/injection, schedule: Q01DX005 (ip), vehicle: saline with Tween-80",109 % of control
same,T/C,"dose: 30.0 mg/kg/injection, schedule: Q01DX005 (ip), vehicle: saline with Tween-80",100 % of control
same,T/C,[17],100 % of control and 104 % of control
CSc1ncnc2sc(NN)nc12,T/C,"dose: 100.0 mg/kg/injection, schedule: Q01DX001 (ip), vehicle: distilled water + alcohol",94 % of control
same,T/C,"dose: 200.0 mg/kg/injection, schedule: Q01DX001 (ip), vehicle: distilled water + alcohol",94 % of control
same,T/C,"dose: 400.0 mg/kg/injection, schedule: Q01DX001 (ip), vehicle: distilled water + alcohol",102 % of control
O=C1C2C3C=CC(C2C(=O)N1CN1CCSCC1)C1C2C(=O)N(CN4CCSCC4)C(=O)C2C31 (stereo not drawn),T/C,[9],99 % of control
same,T/C,[2],116 % of control and 121 % of control
same,T/C,[4],165 % of control
same,T/C,[6],166 % of control and 194 % of control
c1ccc(CSc2nnc3c4ccccc4c4ccccc4c3n2)cc1,T/C,[2],100 % of control
same,T/C,[4],102 % of control
same,T/C,[6],101 % of control
Cc1ccc(NC(=O)c2cc3ccccc3c(N=Nc3ccccc3O)c2O)c(C)c1,T/C,[17],94 % of control
same,T/C,[18],109 % of control
same,T/C,"dose: 240.0 mg/kg/injection, schedule: Q01DX005 (ip), vehicle: saline with Tween-80",97 % of control
O=C1c2c(O)ccc(Cl)c2C(=O)C2CC=CCC12 (stereo not drawn),T/C,"dose: 50.0 mg/kg/injection, schedule: Q04DX003 (ip), vehicle: DMSO",94 % of control
same,T/C,"dose: 100.0 mg/kg/injection, schedule: Q04DX003 (ip), vehicle: DMSO",88 % of control
same,T/C,"dose: 200.0 mg/kg/injection, schedule: Q04DX003 (ip), vehicle: DMSO",87 % of control
COC(=O)c1nc(N)nc(C(=O)OC)c1C(=O)C(C)(C)C,T/C,[17],96 % of control
same,T/C,[18],96 % of control
OCc1ccc(Cl)cc1O,T/C,"dose: 12.5 mg/kg/injection, schedule: Q01DX009 (ip), vehicle: distilled water + Tween-80",100 % of control
same,T/C,"dose: 25.0 mg/kg/injection, schedule: Q01DX009 (ip), vehicle: distilled water + Tween-80",100 % of control
same,T/C,"dose: 50.0 mg/kg/injection, schedule: Q01DX009 (ip), vehicle: distilled water + Tween-80",105 % of control
same,T/C,"dose: 100.0 mg/kg/injection, schedule: Q01DX009 (ip), vehicle: distilled water + Tween-80",107 % of control
same,T/C,"dose: 200.0 mg/kg/injection, schedule: Q01DX009 (ip), vehicle: distilled water + Tween-80",116 % of control
COc1ccccc1C1CC(c2ccccc2)=Nc2ccccc2S1 (stereo not drawn),T/C,[1],96 % of control
same,T/C,[3],100 % of control
same,T/C,[5],101 % of control
CCCCCCCCCc1cc(=O)[nH]c(=O)[nH]1,T/C,"dose: 100.0 mg/kg/injection, schedule: Q01DX001 (ip), vehicle: Klucel (hydroxypropylcellulose) (HPC)",96 % of control
same,T/C,"dose: 200.0 mg/kg/injection, schedule: Q01DX001 (ip), vehicle: Klucel (hydroxypropylcellulose) (HPC)",96 % of control
same,T/C,"dose: 400.0 mg/kg/injection, schedule: Q01DX001 (ip), vehicle: Klucel (hydroxypropylcellulose) (HPC)",94 % of control
COc1ccc(C)cc1NC(=S)C#N,T/C,[17],98 % of control
same,T/C,[18],106 % of control
CC1(C)CC(O)(CC2CCC34C(=O)OC(C)(CCC3Br)C24)CCC1Br (stereo not drawn),T/C,[10],93 % of control
same,T/C,[11],109 % of control
same,T/C,[12],100 % of control
CC1(C)COC(c2ccc(C(C)(C)C)cc2)=N1,T/C,"dose: 3.13 mg/kg/injection, schedule: Q01DX009 (ip), vehicle: saline with Tween-80",105 % of control
same,T/C,"dose: 6.25 mg/kg/injection, schedule: Q01DX009 (ip), vehicle: saline with Tween-80",105 % of control
same,T/C,"dose: 12.5 mg/kg/injection, schedule: Q01DX009 (ip), vehicle: saline with Tween-80",98 % of control
